According to article PMC6429356, “Development of Anthraquinone Analogues as Phosphoglycerate Mutase 1 Inhibitors” (Molecules, 2019):
“Also recorded” adds a separate entry of the source. Read-outs that look alike come from different tables or passages of the source.

Tests used:
PGAM1 [1] = biological target: T1, PGAM1 (Homo sapiens, UniProt P18669); experiment: PGAM1 enzymatic assay (enolase-pyruvate kinase-LDH coupled, OD 340 nm); type: biochemical; conditions: optimized enzymatic assay; mean ± s.d. (n = 3)
T1 construct: His6 (C); made in house
Protocol: (§1) Firstly, 1 μL inhibitor in dimethyl sulfoxide (DMSO) incubated with 49 μL 4.6 nM recombinant PGAM1, then 50 μL enzyme mix containing 3 units/mL enolase (Sigma-Aldrich, Saint Louis, MO, USA), 3 units/mL recombinant pyruvate kinase M2 (Sigma-Aldrich), 0.6 units/mL recombinant lactatdehydrogenase (LDH, Sigma-Aldrich), 100 mM Tris-HCl, 100 mM KCl, 5 mM MgCl2, 1 mM adenosine diphosphate (ADP), 0.2 mM the reduced form of nicotinamide adenine dinucleotide (NADH) and 4 mM 3PG was added. PGAM1 activity was measured as the decrease in OD at 340 nm. In addition, we performed a counter screening in which 4mM 2PG was added to 50 μL reaction mix containing the indicated inhibitor, 3 units/mL enolase (Sigma-Aldrich), 3 units/mL recombinant pyruvate kinase M2 (Sigma-Aldrich), 0.6 units/mL recombinant LDH (Sigma-Aldrich), 100 mM Tris-HCl, 100 mM KCl, 5 mM MgCl2, 1 mM ADP and 0.2 mM NADH. The other three enzyme activity was measured as the decrease in OD at 340 nm.

[2] = system: enolase-pyruvate kinase-LDH; experiment: Counter screening: control linked enzyme assay with 2PG; type: biochemical; conditions: 0.5 μM compound, pyruvate kinase M2, LDH without PGAM1, mean ± s.d. (n = 2)
Protocol: as §1

H1299 cells [3] = experiment: Cell viability assay (MTT, 72 h), H1299; type: cell-based; conditions: Homo sapiens, NCI-H1299, proliferation, mean ± s.d. (n = 3)
Protocol: (§2) The H1299 cell line was obtained from Guangzhou Jenniobio Biotechnology Co., Ltd. (Guangzhou, China), PC9 and A549 cells were gifted from Deng Jiong’s lab in the School of Medicine, Shanghai Jiao Tong University, Shanghai, China). H1299, PC9 cells were cultured in RPMI-1640 medium and A549 cells were cultured in F-12K medium containing 10% fetal bovine serum (FBS), 100 units/mL of Penicillin and 100 μg/mL Streptomycin. In cell viability assays, 2000 H1299 cells, A549 cells or 1000 PC9 cells per well were seeded in 96-well plate. After attachment for 24 h, the cells were treated with indicated inhibitor for 72 h. After incubation with 0.5 mg/mL methylthiazolyldiphenyl-tetrazolium bromide (MTT) for 4 h, cell viability was measured as the OD at 570 nm.

A549 cells = experiment: Cell viability assay (MTT, 72 h), A549; type: cell-based; conditions: Homo sapiens, proliferation, mean ± s.d. (n = 3)
Protocol: as §2

PC9 cells = experiment: Cell viability assay (MTT, 72 h), PC9; type: cell-based; conditions: Homo sapiens, PC-9, proliferation, mean ± s.d. (n = 3)
Protocol: as §2

[4] = system: PGAM1 mutations (F22A, R116H and R191H); experiment: Inhibition of PGAM1 mutants compared with wild type; type: biochemical; conditions: 5 μM compound
Source text: To further understand the molecular mechanism of the anthraquinone derivatives interacting with PGAM1, we determined the X-ray structure of PGAM1 in complex with compound 9i at resolution of 1.98 Å (Table 5). Compound 9i occupied a novel allosteric site adjacent to substrate binding site with nice electron density (Figure 3A,B). The allosteric pocket was surrounded by the residues of F22, R90, K100, R116 and R191. In detail, the anthraquinone scaffold and sulfonamide of compound 9i interacted with the main chain carbonyl of K100 through water bridges (Figure 3C). In addition, a hydrophobic interaction was observed between F22 and chlorine-substituted phenyl ring of compound 9i (Figure 3C). […]
Firstly, 1 μL inhibitor in dimethyl sulfoxide (DMSO) incubated with 49 μL 4.6 nM recombinant PGAM1, then 50 μL enzyme mix containing 3 units/mL enolase (Sigma-Aldrich, Saint Louis, MO, USA), 3 units/mL recombinant pyruvate kinase M2 (Sigma-Aldrich), 0.6 units/mL recombinant lactatdehydrogenase (LDH, Sigma-Aldrich), 100 mM Tris-HCl, 100 mM KCl, 5 mM MgCl2, 1 mM adenosine diphosphate (ADP), 0.2 mM the reduced form of nicotinamide adenine dinucleotide (NADH) and 4 mM 3PG was added. PGAM1 activity was measured as the decrease in OD at 340 nm. […] The other three enzyme activity was measured as the decrease in OD at 340 nm. […]

PGAM1 [5] = biological target: T1, PGAM1; experiment: Substrate competitive assay with 3PG; type: biochemical
Solubility = type: physicochemical; conditions: remark in text, no method given
H1299 cells [6] = system: H1299 cells; set-up: method as in PMID 28611670, PMID 23153533, PMID 29530347; conditions: Figure 1; read-out: H1299 cells IC50 (reported inhibitors); cited from earlier work
PGAM1 [7] = biological target: T1, PGAM1; set-up: method as in PMID 16200062, PMID 28611670, PMID 23153533, PMID 29530347; conditions: Figure 1; read-out: PGAM1 IC50 (reported inhibitors); cited from earlier work
MDA-MB-231 cells = system: MDA-MB-231 cells; set-up: method as in PMID 16200062; conditions: Figure 1; read-out: MDA-MB-231 cells IC50 (reported inhibitor); cited from earlier work

T1 sequence (P18669 whole entry): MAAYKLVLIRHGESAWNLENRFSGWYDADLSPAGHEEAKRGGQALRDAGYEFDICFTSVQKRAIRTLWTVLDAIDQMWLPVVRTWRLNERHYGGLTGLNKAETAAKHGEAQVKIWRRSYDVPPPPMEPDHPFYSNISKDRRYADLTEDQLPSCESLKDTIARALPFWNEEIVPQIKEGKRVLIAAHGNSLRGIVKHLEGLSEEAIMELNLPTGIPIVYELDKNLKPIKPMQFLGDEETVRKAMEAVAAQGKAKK

Compound | IC50 (PGAM1 [1]) [µM] | Inhibition in the Control Linked Enzyme Assay (0.5 μM) [2] [%] | IC50 (H1299 cells [3]) [µM] | IC50 (A549 cells) [µM] | IC50 (PC9 cells) [µM] | IC50 (H1299 cells [6]) [µM] | further results
O=C1c2ccccc2C(=O)c2c1cc(NS(=O)(=O)c1ccc(OC(F)(F)F)cc1)c(O)c2O [Compound 9c, N-(3,4-Dihydroxy-9,10-dioxo-9,10-dihydroanthracen-2-yl)-4-(trifluoromethoxy) benzenesulfonamide] | 0.9 ± 0.07 | 3.7 ± 1.8 | 16.6 ± 1.8 | 8 ± 0.8 | 10.2 ± 0.7 | – | –
O=C1c2ccccc2C(=O)c2c1cc(NS(=O)(=O)c1ccc(Cl)cc1)c(O)c2O [Compound 9i, 4-Chloro-N-(3,4-dihydroxy-9,10-dioxo-9,10-dihydroanthracen-2-yl) benzenesulfonamide] | 0.27 ± 0.04 | −6.4 ± 5.0 | 6.9 ± 1.2 | 12.7 ± 2.7 | 13.8 ± 1 | – | Inhibition of PGAM1 mutations versus wild type [4]: failed to inhibit mutations of PGAM1 (F22A, R116H and R191H) as effectively as the wild type; Mode of inhibition with respect to substrate 3PG (PGAM1 [5]): noncompetitive inhibitor; also recorded: non-competitive; also recorded: noncompetitive binding; Solubility (Solubility): good solubility
O=C1c2ccccc2C(=O)c2c1cc(NS(=O)(=O)c1c(Cl)cc(Cl)cc1Cl)c(O)c2O [Compound 9l, 2,4,6-Trichloro-N-(3,4-dihydroxy-9,10-dioxo-9,10-dihydroanthracen-2-yl) benzenesulfonamide] | 0.9 ± 0.26 | 0.2 ± 1.7 | 6.2 ± 1.2 | > 50 | > 50 | – | –
O=C1c2ccccc2C(=O)c2c1cc(NS(=O)(=O)c1ccc(I)cc1)c(O)c2O [Compound 9p, 4-Iodo-N-(3,4-dihydroxy-9,10-dioxo-9,10-dihydroanthracen-2-yl) benzenesulfonamide] | 0.47 ± 0.07 | 1.9 ± 0.1 | 17.3 ± 3.9 | 10.3 ± 1.4 | 13.4 ± 1.8 | – | –
O=c1c2c(O)cccc2oc2cc(NS(=O)(=O)c3ccc(N4CCCC4)cc3)c(O)c(O)c12 [Compound 12r] | – | – | – | – | – | 5 | –
O=C(O[C@@H]1Cc2c(O)cc(O)cc2O[C@@H]1c1cc(O)c(O)c(O)c1)c1cc(O)c(O)c(O)c1 [EGCG, (−)-epigallocatechin-3-gallate] | – | – | – | – | – | > 80 | –
C#CCCCC(=O)OC(C)(C)C1CCC2(CO2)C(OC(=O)NC(Cc2c[nH]c3ccccc23)C(=O)OCc2ccccc2)C1 (stereo not shown) [MJE3] | – | – | – | – | – | – | IC50 (PGAM1 [7]): 33 µM; IC50 (MDA-MB-231 cells): 19 µM
O=C1c2ccccc2C(=O)c2c1cc(S(=O)(=O)Nc1ccc(C(F)(F)F)cc1)c(O)c2O [PGMI-004A] | – | – | – | – | – | 25.6 | –
